Results from patent US12503446B2, “Bromodomain inhibitors” (FORSCHUNGSZENTRUM JÜLICH GMBH, priority 2019, dated 2025).
“Also recorded” adds a separate entry of the source.

Tests used:
[1] = test system: haematopoietic cell lines, erythroleukaemia and AML cell lines; assay: Inhibitory activity in haematopoietic cell lines (summary statements); assay type: cell-based; settings: for activity relative to PFI-1 in haematopoietic cell lines: racemic mixtures of MF1, MF2, achiral MF3
Description: (§1) All studies with the HEL, Molm-14 and K562 cell lines mentioned (sourced from DSMZ: ACC-11, ACC-10 and ACC-777) were conducted under germ-free conditions under a sterile hood. Incubation was effected at 37° C. in an incubator at a CO2 saturation of 5%. For the passage of the suspension cells, the cells were transferred in a Falcon prefilled with PBS (phosphate buffered saline) and centrifuged at 1200 rpm for 5 min. All three cell lines were cultured in RPMI-1640 medium (Gibco, Thermo Fischer Scientific, Darmstadt, Germany) with 10% FCS and 1% penicillin streptomycin.
(§2) The viability and metabolic activity of the cells were measured by the MTT assay. Yellow, water-soluble MTT (3-([…])-2,5-diphenyltetrazolium bromide) is a tetrazolium salt which is reduced to dark blue formazan in living cells. Insoluble formazan is released by addition of isopropanol-HCl, and its intensity can be determined by photometry at a wavelength of 550 nm. Thus, the proportion of living cells is measured by comparison with a particular control sample. The cells were counted and washed with PBS, and 30 000 cells per well were sown in triplicates in a 96-well plate. For the inhibitor treatment, the stated final concentrations were used. For this purpose, 10 µl of the appropriate inhibitor dilution was introduced into the 96-well plates, and then 90 μl of cell suspension was pipetted in. The plates were incubated in an incubator for 72 h (37° C., 5% CO2). After the incubation, 10 μl of MTT solution (5 mg/ml) was applied to the wells with a multichannel pipette and thoroughly resuspended. This was followed by incubation for 4 h in the dark at room temperature. Subsequently, the cells were resuspended in 100 μl of isopropanol-HCl and lysed, and absorption at a wavelength of 550 nm was measured by photometry with a plate reader (Kayto, RT-2100C).

[2] = test system: erythroleukaemia cell line HEL (JAK2V617F-positive); assay: MTT assay, metabolic activity of HEL cells; assay type: cell-based; settings: 72 h; for effect on metabolic activity of HEL cells (in words): concentrations up to 20 μM
Description: as §1, §2
(§3) The erythroleukaemia cell line HEL (JAK2V617F-positive), the AML cell line Molm-14 and the chronic myeloid leukaemia (CML) cell line K562 (BCR-ABL-positive) were used for cell experiments.
(§4) Compounds MF1-R, MF1-S, JHS1-R and JHS1-S were dissolved in DMSO, and each was used in concentrations of 0.1 μM, 1 μM, 10 μM and 20 μM. Correspondingly, DMSO was included in each case as a control treatment, and the metabolic activity thereof was set to 100%. The HEL, Molm-14 and K562 cell lines were treated with the respective compounds in the different concentrations and, after 72 h in culture, the metabolic activity, which gives information about the growth of the cells, was determined by means of MTT [3-(4,5-dimethylthiazol-2-yl)-2,5-diphenyltetrazolium bromide] assay.

AML cell line Molm-14 = assay: MTT assay, metabolic activity of Molm-14 cells; assay type: cell-based; settings: 72 h; for effect on metabolic activity of Molm-14 cells (in words): concentrations up to 20 μM
Description: as §1, §2, §3, §4

[3] = test system: PBMC or CD34+ cells from healthy donors; assay: CFU assay, healthy controls; assay type: cell-based, human
Description: With the aid of the CFU assay, it is possible to determine the colony-forming capacity of individual cells in a semisolid methylcellulose medium (MethoCult H4434, StemCell Technologies, Cologne, Germany). The number of colonies was determined after 7-11 days.
CD34+ cells (G-CSF mobilized from stem cell donors) from healthy donors: 2×10^4 cells/ml; PBMCs from the healthy subjects: 4×10^5 cells/ml.
For this purpose, mononuclear cells (PBMC: mononuclear cells from peripheral blood) or CD34-positive stem cells (CD34+ cells) were isolated from the blood of four healthy controls and three AML or MPN patients and introduced into semisolid medium, to each of which 1 μM or 5 μM of MFS-2 or PFI-1 have been added. Individual cells in the CFU assay form cell colonies in culture after 12 days, unless the formation thereof is prevented by inhibitors.

[4] = test system: proteins from the BET family; assay: Thermal shift assay (BromoMELT assay), BET family; assay type: binding; settings: 10 μM, duplicates, versus DMSO control; apart from BRDT-2
Description: (§5) The experiment was conducted in duplicates at a concentration of 10 μM.

BRD2 = assay: Thermal shift assay (BromoMELT assay), BRD2; assay type: binding; settings: 10 μM, duplicates, versus DMSO control
Description: as §5

SMILES: COc1ccccc1S(C)(=O)=Nc1ccc2c(c1)CN(C)C(=O)N2 (racemic) [MF1, rac-N-(3-methyl-2-oxo-1,2,3,4-tetrahydroquinazolin-6-yl)-S-(2-methoxyphenyl)-S-methylsulfoximine]
- inhibitory activity in haematopoietic / leukaemia cell lines (in words) [1]: marked inhibitory activity; also recorded: showed inhibitory activity
- activity relative to PFI-1 in haematopoietic cell lines [1]: at a comparable level to PFI-1

SMILES: COc1ccccc1[S@@](C)(=O)=Nc1ccc2c(c1)CN(C)C(=O)N2 [MF1-R, (R)—N-(3-methyl-2-oxo-1,2,3,4-tetrahydroquinazolin-6-yl)-S-(2-methoxyphenyl)-S-methylsulfoximine]
- effect on metabolic activity of HEL cells (in words) [2]: virtually inactive
- effect on metabolic activity of Molm-14 cells (in words) (AML cell line Molm-14): virtually inactive
- inhibitory activity in haematopoietic / leukaemia cell lines (in words) [1]: minor inhibitory effect

SMILES: CN1Cc2cc(N=S(C)(=N)c3ccccc3)ccc2NC1=O (racemic) [JHS2, rac-N-(3-methyl-2-oxo-1,2,3,4-tetrahydroquinazolin-6-yl)-N′—H—S-methyl-S-phenylsulfonediimide]
- effect on metabolic activity of HEL cells (in words) [2]: inactive
- effect on metabolic activity of Molm-14 cells (in words) (AML cell line Molm-14): inactive
- inhibitory activity in haematopoietic / leukaemia cell lines (in words) [1]: minor inhibitory activity

SMILES: CN1Cc2cc(N=S(=O)(c3ccccc3)c3ccccc3)ccc2NC1=O [MF3, N-(3-methyl-2-oxo-1,2,3,4-tetrahydroquinazolin-6-yl)-S,S-diphenylsulfoximine]
- inhibitory activity in haematopoietic / leukaemia cell lines (in words) [1]: marked inhibitory activity
- activity relative to PFI-1 in haematopoietic cell lines [1]: at a comparable level to PFI-1

SMILES: COc1ccccc1[S@](C)(=O)=Nc1ccc2c(c1)CN(C)C(=O)N2 [MF1-S, (S)—N-(3-methyl-2-oxo-1,2,3,4-tetrahydroquinazolin-6-yl)-S-(2-methoxyphenyl)-S-methylsulfoximine]
- effect on metabolic activity of HEL cells (in words) [2]: comparable effect on the metabolic activity of HEL and Molm-14 cells to PFI-1
- effect on metabolic activity of Molm-14 cells (in words) (AML cell line Molm-14): comparable effect on the metabolic activity of HEL and Molm-14 cells to PFI-1

SMILES: CN1Cc2cc(N=[S@](C)(=Nc3ccccc3)c3ccccc3)ccc2NC1=O [JHS1-S, (S)—N-(3-methyl-2-oxo-1,2,3,4-tetrahydroquinazolin-6-yl)-N-phenyl-S-methyl-S-phenylsulfonediimide]
- effect on metabolic activity of HEL cells (in words) [2]: comparable effect on the metabolic activity
- effect on metabolic activity of Molm-14 cells (in words) (AML cell line Molm-14): comparable effect on the metabolic activity

SMILES: CN1Cc2cc(N=S(C)(=O)c3ccccc3)ccc2NC1=O (racemic) [MF2, rac-N-(3-methyl-2-oxo-1,2,3,4-tetrahydroquinazolin-6-yl)-S-methyl-S-phenylsulfoximine]
- effect on metabolic activity of HEL cells (in words) [2]: reduced the metabolic activity of HEL and Molm-14 cells at concentrations of 10 and 20 μM
- effect on metabolic activity of Molm-14 cells (in words) (AML cell line Molm-14): reduced the metabolic activity of HEL and Molm-14 cells at concentrations of 10 and 20 μM
- inhibitory activity in haematopoietic / leukaemia cell lines (in words) [1]: marked inhibitory activity
- activity relative to PFI-1 in haematopoietic cell lines [1]: at a comparable level to PFI-1

SMILES: CN1Cc2cc(N=S(C)(=Nc3ccccc3)c3ccccc3)ccc2NC1=O (racemic) [JHS1, rac-N-(3-methyl-2-oxo-1,2,3,4-tetrahydroquinazolin-6-yl)-N-phenyl-S-methyl-S-phenylsulfonediimide]
- effect on metabolic activity of HEL cells (in words) [2]: reduced the metabolic activity of HEL and Molm-14 cells at concentrations of 10 and 20 μM; also recorded: achieved inhibition of the metabolic activity of HEL and Molm-14 cells at concentrations of 10 and 20 μM
- effect on metabolic activity of Molm-14 cells (in words) (AML cell line Molm-14): reduced the metabolic activity of HEL and Molm-14 cells at concentrations of 10 and 20 μM; also recorded: achieved inhibition of the metabolic activity of HEL and Molm-14 cells at concentrations of 10 and 20 μM

SMILES: CN1Cc2cc(N=[S@](C)(=O)c3ccccc3)ccc2NC1=O [MF2-R, (R)—N-(3-methyl-2-oxo-1,2,3,4-tetrahydroquinazolin-6-yl)-S-Methyl-S-Phenylsulfoximine]
- effect on metabolic activity of HEL cells (in words) [2]: lost inhibitory activity compared to MF2
- effect on metabolic activity of Molm-14 cells (in words) (AML cell line Molm-14): lost inhibitory activity compared to MF2
- inhibitory activity in haematopoietic / leukaemia cell lines (in words) [1]: showed inhibition of the cell proliferation of leukaemia cell lines

SMILES: CN=S(C)(=Nc1ccc2c(c1)CN(C)C(=O)N2)c1ccccc1 (racemic) [JHS3, rac-N-(3-methyl-2-oxo-1,2,3,4-tetrahydroquinazolin-6-yl)-N-methyl-S-methyl-S-phenylsulfonediimide]
- effect on metabolic activity of HEL cells (in words) [2]: inactive
- effect on metabolic activity of Molm-14 cells (in words) (AML cell line Molm-14): inactive
- inhibitory activity in haematopoietic / leukaemia cell lines (in words) [1]: minor inhibitory activity

SMILES: COc1ccccc1S(=O)(=O)Nc1ccc2c(c1)CN(C)C(=O)N2 [PFI-1, reference compound]
- metabolic activity of HEL cells ([2]; 1 μM, DMSO control set to 100%): 72.95%±12.7
- metabolic activity of Molm-14 cells (AML cell line Molm-14; 1 μM, DMSO control set to 100%): 80.43%±1.324
- colony count, healthy CD34+ controls 3 and 4 ([3]; 1 μM): reduced the colony count of the controls to a lesser degree
- colony count, healthy controls 1 (PBMC) and 2 (CD34+ cells) ([3]; 5 μM): likewise reduced the amount of colonies
- binding of BET family proteins (ΔTm, in words) [4]: specifically bind proteins of the BET family
- binding of BRD2 (ΔTm, in words) (BRD2): stronger binding of BRD2

SMILES: CN1Cc2cc(N=[S@@](C)(=Nc3ccccc3)c3ccccc3)ccc2NC1=O [JHS1-R, (R)—N-(3-methyl-2-oxo-1,2,3,4-tetrahydroquinazolin-6-yl)-N′-phenyl-S-methyl-S-phenylsulfonediimide]
- inhibitory activity in haematopoietic / leukaemia cell lines (in words) [1]: almost the same level of inhibitory action
